Data set [1] has as its system differentiated 3T3-L1 adipocytes. Briefly: In vitro glucose consumption assay, 3T3-L1 adipocytes. Type of data set: cell-based, mouse. The conditions noted are these: 10, 50 μM, 24 h. The method, then:
(§1) Figure 3 MD001 promotes glucose consumption by induction of GLUT expression. HepG2 (A), differentiated 3T3-L1 adipocytes (B), and differentiated C2C12 myotubes (C) were treated with vehicle, MD001 (10, 50 μM), or rosiglitazone (rosi, 10 μM) for 24 h; glucose consumption was examined as described in the Methods section. Cells were harvested for total RNA isolation. Relative expression levels of GLUT2 (D) and GLUT4 (E,F) were quantitated using qRT-PCR. *, **, and ^† vs. vehicle. Data represent the mean ± SD of three independent experiments. *P < 0.05, **P < 0.01, and ^†P < 0.01.
(§2) The glucose consumption assay was performed as previously described. Briefly, cells were treated with MD001 or rosiglitazone […]. The conditioned medium from cultured cells was harvested and assayed for glucose content using a Glucose Colorimetric Assay Kit II (BioVision Inc., Milpitas, CA, USA).

For data set [2], the system named is HepG2 cells. The data set can be described thus: In vitro glucose consumption assay, HepG2. It counts as cell-based, human. The conditions noted are these: 10, 50 μM, 24 h. The protocol:
as §1, §2

Another data set has as its target T1, PPARβ/δ (Homo sapiens, UniProt Q03181).
T1 construct: HA; made in house
T1 sequence (Q03181 1-441): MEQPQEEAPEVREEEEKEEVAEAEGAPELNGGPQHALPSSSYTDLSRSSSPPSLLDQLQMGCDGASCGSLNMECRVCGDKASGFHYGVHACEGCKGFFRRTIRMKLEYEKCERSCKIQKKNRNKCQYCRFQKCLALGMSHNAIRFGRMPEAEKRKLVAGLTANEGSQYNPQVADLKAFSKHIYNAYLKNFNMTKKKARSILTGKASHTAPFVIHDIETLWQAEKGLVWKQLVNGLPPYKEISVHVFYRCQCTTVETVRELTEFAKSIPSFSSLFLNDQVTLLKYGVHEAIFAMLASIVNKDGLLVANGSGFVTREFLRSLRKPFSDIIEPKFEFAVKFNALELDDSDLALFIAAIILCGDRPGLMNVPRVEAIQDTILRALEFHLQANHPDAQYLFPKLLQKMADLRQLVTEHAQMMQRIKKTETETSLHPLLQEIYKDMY
Briefly: SPR analysis of binding to immobilised HA-PPARβ/δ. Particulars: N.B = No binding up to 500 μM. The protocol:
SPR analysis was performed using a Reichert SR7500DC (Reichert Technologies, Depew, NY, USA). HA-PPARα, HA-PPARβ/δ, and HA-PPARγ were purified as previously described[23] and was immobilised on CMDH chips (Reichert Technologies) according to the manufacturer’s instructions. MD001 was loaded in a dose-dependent manner (31.25, 62.5, 125, 250, and 500 μM) for the SPR assay. The dissociation constant (KD) value was determined using the Scrubber2 program (Informer Technologies, Inc., Los Angeles, CA, USA).
A general note: Surface plasmon resonance follows binding to a sensor surface in real time, without labels.

Data set [3] concerns HepG2 cells. The data set can be described thus: Fatty acid oxidation assay ([3H]palmitate), HepG2. It counts as cell-based, human. The conditions noted are these: 10 μM, 24 h. The protocol: Figure 4 MD001 stimulates fatty acid oxidation in vitro. HepG2 (A), differentiated 3T3-L1 adipocyte (B), and differentiated C2C12 myotubes (C) were treated with vehicle or MD001 (10 μM) for 24 h and total RNA was isolated for cDNA synthesis. Relative gene expressions were analysed by qRT-PCR. HepG2 (D), differentiated 3T3-L1 adipocytes (E), and differentiated C2C12 myotubes (F) were treated with vehicle, MD001 (10 μM), or WY14643 (WY) (10 μM) for 24 h and the fatty acid oxidation rate was analysed as described in the Methods section. To confirm whether the fatty acid oxidation rate enhanced by MD001 is mediated by PPARα, HepG2 (G), differentiated 3T3-L1 (H), and differentiated C2C12 myotubes (I) were transfected with control or PPARα siRNA (20 nM) for 48 h, followed by treatment with vehicle, MD001 (10 μM), or WY14643 (WY) (10 μM) for 24 h. […]
For the fatty acid oxidation assay, cells were incubated in α-MEM (HyClone Laboratories, Inc., Logan, UT, USA) containing 0.1 mM palmitate (9,10-[^3H]palmitate, 5 μci/mL) (PerkinElmer, Waltham, MA, USA) and 1% bovine serum albumin for 24 h. […] After incubation, the vial was removed and radioactivity (^3H2O in water) was quantified using a liquid scintillation counter (LKB Instruments, Victoria, Australia).

Data set [4] relates to wild type C57BL/6J mice. Briefly: Toxicity study in wild type C57BL/6J mice. Type of data set: in vivo, mouse. Particulars: wild type C57/BL6 mice, 50 or 100 mg/kg MD001 for eight weeks. The source says: Supplementary Table S4. Laboratory findings in control and MD001-treated mice
Results are expressed as the mean ( ± SD).
ALT, alanine transaminase; AST, aspartate transaminase; BUN, blood urea nitrogen; WBC, white blood cells.
Supplementary Table S5. Crystal data and structure refinement for 4a
Identification code exp_524
Empirical formula C27H22O5
Crystal system monoclinic

The test system of data set [5] is wild type C57BL/6J mice. The data set can be described thus: Oral once-daily administration to wild type C57BL/6J mice. It counts as in vivo, mouse. The protocol: Supplementary Figure S6. MD001 has no influence on food intake of mice. (A) Wild type C57/BL6 mice were orally administered with vehicle, rosiglitazone (20 mg/kg), or MD001 (20 mg/kg) once a day for 60 days. The change in their body weight was evaluated and presented as gain of body weight per group (n = 5 - 6 in each group). (B) The 3-day food intake in wild type C57/BL6 mice or db/db mice during the administration of the indicated drug was measured three times (n = 5 - 6 in each group). The data represent the mean ± SD.
C57/BL6 mice. (A-H) Wild type C57/BL6 mice were administered with vehicle, rosiglitazone (20 mg/kg), or MD001 (20 mg/kg) (n = 5 in each group) for 60 days, and their blood metabolites were measured. (B) Blood glucose level was examined during the administration of the […]

The mark [6] stands for this setting: wild type C57BL/6J mice, 20 mg/kg, 60 days, compared to vehicle.
Setting [7] is: wild type C57BL/6 mice, 20 mg/kg, 60 days.

From publication PMC6367362, “MD001, a Novel Peroxisome Proliferator-activated Receptor α/γ Agonist, Improves Glucose and Lipid Metabolism” (Scientific Reports, 2019) come the findings set out here.

Regarding `Cc1c(O)cc(O)c2c(-c3ccccc3)c(C(=O)/C=C/c3ccccc3)c(=O)oc12` [MD001], the glucose consumption entry in data set [1] is “significantly increased glucose consumption in a dose-dependent manner”. In addition, the glucose consumption result in the data set with HepG2 cells [2] was “significantly increased glucose consumption in a dose-dependent manner”. In addition, the “KD (M), second row of Supplementary Table S3 (PPARβ/δ)” value at PPARβ/δ is recorded as “N.B”. Besides, the “β-oxidation rate (fatty acid oxidation)” value in the data set with HepG2 cells [3] was “significantly increased”. Also, in the data set on wild type C57BL/6J mice [4], the “liver and kidney toxicities” value is listed as “not observed”; the “white blood cell counts and haemoglobin (toxicology study)” value was “no differences”. In the data set on wild type C57BL/6J mice [4] (data not shown), the body weight change result is on record as “no significant differences”. In addition, the body weight gain result with wild type C57BL/6J mice [5] (wild type C57BL/6J mice, once a day for 60 days) is recorded as “no induction of body weight gain”. Besides, the “H&E staining of adipose tissue, skeletal muscle, and liver” value in the data set with wild type C57BL/6J mice [5] (wild type C57BL/6J mice, 20 mg/kg once a day for 60 days) was “no differences”. In addition, in the data set with wild type C57BL/6J mice [5] (setting [6]), the blood glucose result was “did not have any effect” and the “levels of plasma lipids” value was “did not have any effect”. In addition, in the data set with wild type C57BL/6J mice [5] (setting [7]), the “blood ALT levels” value was “no effect” and the “blood AST levels” value was “no effect”.
